Values after ≈ are worked out from the molar mass of the structure shown. Like-named read-outs stand apart in the source and are kept apart here.
How the values were obtained:
rat GluN1/GluN2C [1] = target: rat GluN1/GluN2C (Rattus norvegicus, UniProt Q00961); test: Two-electrode voltage clamp recordings in Xenopus laevis oocytes, potentiation of GluN1/GluN2C; format: cell-based; details: for GluN2C Max %: maximal response, current without potentiator = 100%; for GluN2C potentiation (NE class): 30 μM
Description: (§1) Xenopus laevis oocytes were purchased unfertilized from Ecocyte (Austin, Tex.). The oocytes were injected with mRNA to express recombinant rat GluN1/GluN2A, GluN1/GluN2B, GluN1/GluN2C, and GluN1/GluN2D and two-electrode voltage clamp (TEVC) recordings were performed. Drs. S. Heinemann (Salk Institute), S. Nakanishi (Kyoto University), and P. Seeburg (University of Heidelberg) provided the cDNAs for rat GluN1-1a (GenBank accession numbers U11418 and U08261, referred to as GluN1 henceforth), GluN2A (D13211), GluN2B (U11419), GluN2C (M91563), and GluN2D (D13213). GluN2C and GluN2D were altered according to literature precedent. […] To prevent the current increase typically seen during experiments with oocytes expressing GluN1/GluN2A receptors, the oocytes were either injected with 20 nL of 100 mM K-BAPTA (potassium 1,2-bis(o-aminophenoxy)ethane-N,N,N,N-tetraacetic acid) or pretreated with 50 μM BAPTA-AM (1,2-bis(o-aminophenoxy)ethane-N,N,N,N-tetraacetic acid tetraacetoxymethyl ester) for 10 minutes.

rat GluN1/GluN2C [2] = target: rat GluN1/GluN2C (Rattus norvegicus, UniProt P35439+Q00961); test: as above; format: cell-based
Description: as §1

[3] = nephelometer, oocyte recording solution
rat GluN1/GluN2D [4] = target: rat GluN1/GluN2D (Rattus norvegicus, UniProt P35439+Q62645); test: Two-electrode voltage clamp recordings in Xenopus laevis oocytes, potentiation of GluN1/GluN2D; format: cell-based
Description: as §1

rat GluN1/GluN2D [5] = target: rat GluN1/GluN2D (Rattus norvegicus, UniProt Q62645); test: as above; format: cell-based; details: for GluN2D Max %: maximal response, current without potentiator = 100%; for GluN2D potentiation (NE class): 30 μM
Description: as §1

[6] = test system: fear and extinction learning; details: mice; Ogden et al. 2014; cited from earlier work
GluN2C/D = details: Mullasseril et al. 2010; read-out: potency at GluN2C/D; cited from earlier work
[7] = test system: GluN2A/B, AMPAR, or kainate receptors; details: previously described; cited from earlier work
[8] = test system: schizophrenia-like symptoms; details: mice; Suryavanshi et al. 2014; cited from earlier work

rat GluN1/GluN2D (Rattus norvegicus, UniProt Q62645), sequence (Q62645 28-1323, other chains not shown): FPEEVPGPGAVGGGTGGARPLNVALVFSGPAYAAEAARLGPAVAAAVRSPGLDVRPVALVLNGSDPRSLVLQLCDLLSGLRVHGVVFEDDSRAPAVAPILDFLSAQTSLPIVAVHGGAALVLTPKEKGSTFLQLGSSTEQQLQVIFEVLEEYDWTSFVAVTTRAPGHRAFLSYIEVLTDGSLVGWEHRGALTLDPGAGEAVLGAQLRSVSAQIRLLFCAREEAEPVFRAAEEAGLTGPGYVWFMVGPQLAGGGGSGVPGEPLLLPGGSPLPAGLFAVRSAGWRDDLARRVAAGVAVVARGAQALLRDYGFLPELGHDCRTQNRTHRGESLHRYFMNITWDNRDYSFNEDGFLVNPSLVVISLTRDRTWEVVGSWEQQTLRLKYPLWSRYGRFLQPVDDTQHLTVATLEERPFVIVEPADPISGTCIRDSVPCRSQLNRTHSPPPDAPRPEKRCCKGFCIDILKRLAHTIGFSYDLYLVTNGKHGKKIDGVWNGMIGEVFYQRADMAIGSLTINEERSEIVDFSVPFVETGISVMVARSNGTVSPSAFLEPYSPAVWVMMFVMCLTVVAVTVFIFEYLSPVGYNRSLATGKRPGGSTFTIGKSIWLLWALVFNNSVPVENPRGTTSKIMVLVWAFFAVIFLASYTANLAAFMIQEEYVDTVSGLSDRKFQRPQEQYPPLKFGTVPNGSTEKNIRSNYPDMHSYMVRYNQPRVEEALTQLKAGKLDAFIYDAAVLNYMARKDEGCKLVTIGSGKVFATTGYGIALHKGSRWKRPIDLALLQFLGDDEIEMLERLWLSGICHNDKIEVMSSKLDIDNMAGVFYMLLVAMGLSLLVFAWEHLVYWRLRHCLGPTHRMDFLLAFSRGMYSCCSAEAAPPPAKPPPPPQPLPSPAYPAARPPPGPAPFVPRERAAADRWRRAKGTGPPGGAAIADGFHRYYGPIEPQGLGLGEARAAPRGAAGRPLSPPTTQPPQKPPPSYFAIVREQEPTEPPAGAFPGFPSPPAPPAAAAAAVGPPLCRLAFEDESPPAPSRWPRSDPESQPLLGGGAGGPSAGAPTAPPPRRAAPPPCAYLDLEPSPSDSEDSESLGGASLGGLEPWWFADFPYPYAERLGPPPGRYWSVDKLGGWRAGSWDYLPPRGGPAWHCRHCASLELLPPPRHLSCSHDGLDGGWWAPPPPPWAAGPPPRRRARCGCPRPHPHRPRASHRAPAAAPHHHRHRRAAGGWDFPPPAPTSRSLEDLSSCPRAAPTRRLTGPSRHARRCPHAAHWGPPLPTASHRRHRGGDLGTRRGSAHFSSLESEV
rat GluN1/GluN2D (Rattus norvegicus, UniProt P35439+Q62645), sequence (Q62645 28-1323, other chains not shown): as above
rat GluN1/GluN2C (Rattus norvegicus, UniProt Q00961), sequence (Q00961 20-1237, other chains not shown): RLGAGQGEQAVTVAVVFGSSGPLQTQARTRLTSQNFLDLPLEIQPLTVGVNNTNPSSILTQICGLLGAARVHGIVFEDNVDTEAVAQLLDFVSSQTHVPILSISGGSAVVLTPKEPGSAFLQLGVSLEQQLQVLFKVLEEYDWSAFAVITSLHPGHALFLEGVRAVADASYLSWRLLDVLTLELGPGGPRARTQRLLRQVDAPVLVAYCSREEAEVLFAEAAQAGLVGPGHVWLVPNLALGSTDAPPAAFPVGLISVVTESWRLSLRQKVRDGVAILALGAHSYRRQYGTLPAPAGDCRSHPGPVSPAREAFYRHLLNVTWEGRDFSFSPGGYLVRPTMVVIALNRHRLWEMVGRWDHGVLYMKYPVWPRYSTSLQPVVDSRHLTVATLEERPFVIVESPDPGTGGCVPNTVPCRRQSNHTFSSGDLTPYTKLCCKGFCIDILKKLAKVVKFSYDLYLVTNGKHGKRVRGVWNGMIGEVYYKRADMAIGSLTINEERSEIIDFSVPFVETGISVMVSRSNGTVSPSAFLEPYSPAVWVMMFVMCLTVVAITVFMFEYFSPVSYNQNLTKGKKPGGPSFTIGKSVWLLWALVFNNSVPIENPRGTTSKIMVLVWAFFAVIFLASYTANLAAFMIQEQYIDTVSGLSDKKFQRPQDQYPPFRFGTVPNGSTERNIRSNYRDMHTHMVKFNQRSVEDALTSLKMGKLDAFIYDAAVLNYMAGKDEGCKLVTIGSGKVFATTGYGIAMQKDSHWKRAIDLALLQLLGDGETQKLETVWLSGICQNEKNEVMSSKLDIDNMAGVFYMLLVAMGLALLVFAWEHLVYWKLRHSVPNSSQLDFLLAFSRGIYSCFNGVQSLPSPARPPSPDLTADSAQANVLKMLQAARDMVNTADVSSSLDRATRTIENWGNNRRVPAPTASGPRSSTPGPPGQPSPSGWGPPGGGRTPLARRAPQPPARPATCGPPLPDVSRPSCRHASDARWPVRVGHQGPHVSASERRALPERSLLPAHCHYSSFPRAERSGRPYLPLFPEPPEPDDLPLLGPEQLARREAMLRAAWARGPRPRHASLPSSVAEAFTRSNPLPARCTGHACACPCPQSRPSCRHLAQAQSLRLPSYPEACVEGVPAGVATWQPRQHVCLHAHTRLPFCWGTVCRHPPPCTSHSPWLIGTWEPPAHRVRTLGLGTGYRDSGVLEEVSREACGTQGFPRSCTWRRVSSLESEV
rat GluN1/GluN2C (Rattus norvegicus, UniProt P35439+Q00961), sequence (Q00961 20-1237, other chains not shown): as above

| SMILES | GluN2C (max) (%) (rat GluN1/GluN2C [1]) | GluN2D (max) (%) (rat GluN1/GluN2D [5]) | GluN2C Max % (rat GluN1/GluN2C [1]) [%] | EC50 (rat GluN1/GluN2C [2]; read-out: GluN2C EC50) [µM] | EC50 (rat GluN1/GluN2D [4]; read-out: GluN2D EC50) [µM] | GluN2D Max % (rat GluN1/GluN2D [5]) [%] | other results |
| --- | --- | --- | --- | --- | --- | --- | --- |
| COc1ccc(OCC2c3cccn3CCN2C(=O)c2cccc(C(F)(F)F)c2)cc1 (racemic) [1180-450, (1-((4-methoxyphenoxy)methyl)-3,4-dihydropyrrolo[1,2-a]pyrazin-2(1H)-yl)(3-(trifluoromethyl)phenyl)methanone] | (381) % | (288) % |  |  |  |  | EC50 (rat GluN1/GluN2C [2]; read-out: GluN2C pEC50 [95% CI] (converted)): 1.58 µM; Solubility [3]: 58 µM (≈ 25 µg/mL); EC50 (rat GluN1/GluN2D [4]; read-out: GluN2D pEC50 [95% CI] (converted)): 2 µM |
| COc1ccc(OCC2c3sccc3CCN2C(=O)c2cccc(Cl)c2)cc1 (centres unmarked) [1180-400, (3-Chlorophenyl)(7-((4-methoxyphenoxy)methyl)-4,7-dihydrothieno[2,3-c]pyridin-6(5H)-yl)methanone] |  |  | 288 | 3.8 | 3.5 | 391 |  |
| COc1ccc(OCC2c3ccsc3CCN2C(=O)c2cccc(Cl)c2)cc1 (centres unmarked) [1180-401, (3-Chlorophenyl)(4-((4-methoxyphenoxy)methyl)-6,7-dihydrothieno[3,2-c]pyridin-5(4H)-yl)methanone] |  |  | 320 | 3.6 | 4.7 | 369 |  |
| COc1ccc(OCC2c3sc(C)nc3CCN2C(=O)c2cccc(Cl)c2)cc1 (centres unmarked) [1180-402, (3-Chlorophenyl)(4-((4-methoxyphenoxy)methyl)-2-methyl-6,7-dihydrothiazolo[5,4-c]pyridin-5(4H)-yl)methanone] |  |  |  |  |  |  | GluN2C potentiation (NE class) (rat GluN1/GluN2C [1]): NE (NE indicates less than 20% potentiation at 30 μM); GluN2D potentiation (NE class) (rat GluN1/GluN2D [5]): NE (NE indicates less than 20% potentiation at 30 μM) |
| COc1ccc(OCC2c3occc3CCN2C(=O)c2cccc(Cl)c2)cc1 (centres unmarked) [1180-403, (3-Chlorophenyl)(7-((4-methoxyphenoxy)methyl)-4,7-dihydrofuro[2,3-c]pyridin-6(5H)-yl)methanone] |  |  | 353 | 7.4 | 9.6 | 527 |  |
| COc1ccc(OCC2c3sccc3CCN2C(=O)c2ccc(Cl)s2)cc1 (centres unmarked) [1180-404, (5-Chlorothiophen-2-yl)(7-((4-methoxyphenoxy)methyl)-4,7-dihydrothieno[2,3-c]pyridin-6(5H)-yl)methanone] |  |  | 269 | 5.1 | 7.4 | 352 |  |
| COc1ccc(OCC2c3sccc3CCN2C(=O)/C=C/C(F)(F)F)cc1 (centres unmarked) [1180-405, (E)-4,4,4-trifluoro-1-(7-((4-methoxyphenoxy)methyl)-4,7-dihydrothieno[2,3-c]pyridin-6(5H)-yl)but-2-en-1-one] |  |  | 282 | 13 | 13 | 317 |  |
| COc1ccc(OCC2c3cnn(C)c3CCN2C(=O)c2cccc(Cl)c2)cc1 (centres unmarked) [1180-407, (3-Chlorophenyl)(4-((4-methoxyphenoxy)methyl)-1-methyl-1,4,6,7-tetrahydro-5H-pyrazolo[4,3-c]pyridin-5-yl)methanone] |  |  |  |  |  |  | GluN2C response at 100 μM (rat GluN1/GluN2C [1]; @ 100 μM): 207% @ 100 μM; GluN2D response at 100 μM (rat GluN1/GluN2D [5]; @ 100 μM): 216% @ 100 μM |
| COc1ccc(OCC2c3cnsc3CCN2C(=O)c2cccc(Cl)c2)cc1 (centres unmarked) [1180-411, (3-Chlorophenyl)(4-((4-methoxyphenoxy)methyl)-6,7-dihydroisothiazolo[4,5-c]pyridin-5(4H)-yl)methanone] |  |  | 194 | 11 | 15 | 238 |  |
| COc1ccc(OCC2c3cnn(C)c3CCN2C(=S)c2cccc(Cl)c2)cc1 (centres unmarked) [1180-413, (3-Chlorophenyl)(4-((4-methoxyphenoxy)methyl)-1-methyl-1,4,6,7-tetrahydro-5H-pyrazolo[4,3-c]pyridin-5-yl)methanethione] |  |  |  |  |  |  | GluN2C potentiation (NE class) (rat GluN1/GluN2C [1]): NE (NE indicates less than 20% potentiation at 30 μM); GluN2D potentiation (NE class) (rat GluN1/GluN2D [5]): NE (NE indicates less than 20% potentiation at 30 μM) |
| COc1ccc(OCC2c3ccsc3CCN2C(=S)c2cccc(Cl)c2)cc1 (centres unmarked) [1180-414, (3-Chlorophenyl)(4-((4-methoxyphenoxy)methyl)-6,7-dihydrothieno[3,2-c]pyridin-5(4H)-yl)methanethione] |  |  |  |  |  |  | GluN2C potentiation (NE class) (rat GluN1/GluN2C [1]): NE (NE indicates less than 20% potentiation at 30 μM); GluN2D potentiation (NE class) (rat GluN1/GluN2D [5]): NE (NE indicates less than 20% potentiation at 30 μM) |
| COc1ccc(OCC2c3cccn3CC(=O)N2Cc2cccc(F)c2)cc1 (centres unmarked) [1180-453, 2-(3-fluorobenzyl)-1-((4-methoxyphenoxy)methyl)-1,2-dihydropyrrolo[1,2-a]pyrazin-3(4H)-one] | (348) % | (334) % |  |  |  |  | Solubility [3]: 74 µM (≈ 28.2 µg/mL) |
| COc1ccc(OCC2c3cc(OC)c(OC)cc3CCN2C(=O)c2cccc(Cl)c2)cc1 (centres unmarked) [CIQ] | 233% | 215% |  |  |  |  | effect on fear and extinction learning in animal models [6]: facilitate the retention of fear and extinction learning; EC50 (GluN2C/D): 5 to 10 µM; activity at GluN2A/B, AMPAR, or kainate receptors [7]: no activity; effect on schizophrenia-like symptoms in animal models [8]: attenuate schizophrenia-like symptoms |
| COc1ccc(OC[C@H]2c3cccn3CC(=O)N2Cc2cccc(C(F)(F)F)c2)cc1 [R-(+)-1180-447] | 276% | 332% |  |  |  |  |  |
| COc1ccc(OC[C@H]2c3cccn3CCN2C(=O)c2cccc(C(F)(F)F)c2)cc1 [R-(+)-1180-450] | 464% | 542% |  |  |  |  |  |
